Structures are written as SMILES.

The test system of series [1] is SARS-CoV-2 B 1.351 strain. Nature of the series: microbe, parasite or virus in culture. In kind it is cell-based. Conditions: Severe acute respiratory syndrome coronavirus 2; VeroE6 TMPRSS2 cells; read-out: EC50 against B 1.351 strain.
A short description of series [2]: in vitro. Conditions: African green monkey.
Series [3] relates to SARS-CoV-2 D614 strain. The series is described as follows: microbe, parasite or virus in culture. In kind it is cell-based. Conditions: Severe acute respiratory syndrome coronavirus 2; VeroE6 TMPRSS2 cells; read-out: EC50 against D614 strain.
For series [4], the system named is SARS-CoV-2. The series is described as follows: Inhibition of SARS-CoV-2 replication in Caco-2 cells. In kind it is cell-based. To be noted: Severe acute respiratory syndrome coronavirus 2.
Series [5] can be described thus: clinical. To be noted: human, in vivo.
The conditions of series [6]: human, in vivo.
Series [7] in a line: in vitro. Conditions: human.
Series [8] relates to SARS-CoV-2 B.1.1.7 strain. The series is described as follows: microbe, parasite or virus in culture. In kind it is cell-based. Conditions: Severe acute respiratory syndrome coronavirus 2; VeroE6 TMPRSS2 cells; read-out: EC50 against B.1.1.7 strain.
Series [9] has as its system SARS-CoV. To be noted: cited from earlier work.
The conditions of series [10]: asthmatic mice, niclosamide in corn oil, I.P. injection; cited from earlier work.
The target in series [11] is T1, TMEM16F (Homo sapiens, UniProt Q4KMQ2).
T1 sequence (Q4KMQ2 1-910): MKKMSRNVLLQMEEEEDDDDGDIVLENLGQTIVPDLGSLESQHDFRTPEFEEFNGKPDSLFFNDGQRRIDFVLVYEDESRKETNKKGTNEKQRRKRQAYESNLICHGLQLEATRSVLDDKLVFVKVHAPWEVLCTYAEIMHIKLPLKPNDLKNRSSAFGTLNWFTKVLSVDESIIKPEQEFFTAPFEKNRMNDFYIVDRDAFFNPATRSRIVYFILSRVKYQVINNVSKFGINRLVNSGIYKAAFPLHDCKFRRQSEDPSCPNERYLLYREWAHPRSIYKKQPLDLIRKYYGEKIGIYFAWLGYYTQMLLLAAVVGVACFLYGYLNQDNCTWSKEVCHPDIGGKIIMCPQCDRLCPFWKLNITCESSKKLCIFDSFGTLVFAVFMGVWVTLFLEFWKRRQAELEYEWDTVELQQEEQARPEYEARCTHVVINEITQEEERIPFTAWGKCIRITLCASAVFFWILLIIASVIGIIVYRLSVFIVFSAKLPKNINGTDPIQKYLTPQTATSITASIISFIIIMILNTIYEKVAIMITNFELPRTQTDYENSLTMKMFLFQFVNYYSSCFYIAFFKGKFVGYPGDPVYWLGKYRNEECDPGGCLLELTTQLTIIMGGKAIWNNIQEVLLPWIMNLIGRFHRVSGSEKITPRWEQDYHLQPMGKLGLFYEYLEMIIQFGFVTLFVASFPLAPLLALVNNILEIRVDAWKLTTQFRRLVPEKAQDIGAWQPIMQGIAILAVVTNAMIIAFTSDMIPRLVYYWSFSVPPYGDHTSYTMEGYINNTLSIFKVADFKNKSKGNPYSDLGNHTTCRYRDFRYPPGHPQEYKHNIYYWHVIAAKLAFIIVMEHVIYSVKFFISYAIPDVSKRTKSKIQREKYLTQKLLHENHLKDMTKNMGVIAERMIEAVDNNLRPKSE
Conditions: cited from earlier work.

Series [12] has as its system all targeted strains. The series is described as follows: Minimum Inhibitory Concentration (MIC) assay, all strains. Conditions: read-out: MIC against all targeted strains.
In series [13] the target is T2, TMEM16A (Homo sapiens, UniProt Q5XXA6).
T2 sequence (Q5XXA6 1-986): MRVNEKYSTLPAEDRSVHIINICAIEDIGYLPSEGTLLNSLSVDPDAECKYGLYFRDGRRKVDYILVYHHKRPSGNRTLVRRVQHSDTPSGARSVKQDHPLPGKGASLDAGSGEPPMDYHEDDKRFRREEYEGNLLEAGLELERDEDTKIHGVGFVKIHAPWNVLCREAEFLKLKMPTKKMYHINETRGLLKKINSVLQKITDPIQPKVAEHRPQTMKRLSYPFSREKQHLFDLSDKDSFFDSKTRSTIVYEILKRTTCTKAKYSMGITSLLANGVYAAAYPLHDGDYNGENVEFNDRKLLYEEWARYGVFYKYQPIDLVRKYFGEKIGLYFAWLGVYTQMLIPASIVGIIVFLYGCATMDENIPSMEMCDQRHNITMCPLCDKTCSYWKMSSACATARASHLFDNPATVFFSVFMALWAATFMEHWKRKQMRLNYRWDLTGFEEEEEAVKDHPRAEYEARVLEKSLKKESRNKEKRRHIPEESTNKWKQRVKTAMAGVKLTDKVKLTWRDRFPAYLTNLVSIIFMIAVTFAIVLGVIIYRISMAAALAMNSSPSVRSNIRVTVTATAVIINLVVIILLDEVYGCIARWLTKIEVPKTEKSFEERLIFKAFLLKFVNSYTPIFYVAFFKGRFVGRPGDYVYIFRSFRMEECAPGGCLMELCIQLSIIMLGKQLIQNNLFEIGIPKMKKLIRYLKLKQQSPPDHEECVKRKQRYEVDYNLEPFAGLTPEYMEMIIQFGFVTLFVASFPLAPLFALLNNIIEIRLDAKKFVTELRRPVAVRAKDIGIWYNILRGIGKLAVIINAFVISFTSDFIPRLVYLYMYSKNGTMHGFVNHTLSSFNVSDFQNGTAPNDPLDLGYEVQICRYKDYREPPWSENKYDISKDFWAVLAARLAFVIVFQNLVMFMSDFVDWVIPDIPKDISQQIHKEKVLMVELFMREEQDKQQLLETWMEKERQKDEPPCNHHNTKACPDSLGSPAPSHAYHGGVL
Conditions: cited from earlier work.

For series [14] the following is noted: 2 g/day oral dose; IC90 against SARS-CoV-2.

For the compound `O=C(Nc1ccc([N+](=O)[O-])cc1Cl)c1cc(Cl)ccc1O` [niclosamide ethanolamine], the EC50 was 70 nM in series [1], 130 nM in series [3], 80 nM in series [4] and 80 nM in series [8]. Also, the CC50 in [2] and in series [7] was above 10000 nM in each case. In addition, the area under the curve AUC(0-t) in series [5] is 509 ng·h/mL. Moreover, in series [5] (maximum plasma concentration (Cmax), mean), the peak level (Cmax) was 239 ng/mL. Further, in [6], the “peak concentrations in blood (range)” value was in the range of 29 to 506 ng/mL.
Take `O=C(Nc1ccc([N+](=O)[O-])cc1Cl)c1cc(Cl)ccc1O` [niclosamide, 5-chloro-N-(2-chloro-4-nitrophenyl)-2-hydroxybenzamide]: in series [9], the “concentration at which viral antigen synthesis was totally abolished” value is listed as 1.56 μm and the “concentration suppressing cytopathic effect (CPE), as low as” value is 1 μm. Moreover, in series [10], the “effect on mucus production and secretion and bronchoconstriction” value was “reduced mucus production and secretion, as well as bronchoconstriction”. Moreover, the “inhibition of TMEM16F” value in series [11] is on record as “potent inhibitor”. Besides, the MIC in [12] was at most 0.5 µg/mL. The “inhibition of TMEM16A” value in series [13] is given as “potent inhibitor”. Moreover, the “efficacy margin, mean systemic exposure of human oral dose to IC90” value in series [14] is recorded as 8 fold.

The values are drawn from patent US20230147683A1, “TREATMENT” (UNION Therapeutics A/S, priority 2020, published 2023).
